Data published in PubChem BioAssay (NCI).
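The compound was tested at five concentrations on cells cultured in 96-well plates, with a 48-hour exposure period. GI50 is the concentration that inhibits growth by half. TGI is the concentration that stops growth completely.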

How the values were obtained:
Test in all cases: NCI tumour cell line growth inhibition, 48 h
CAKI-1 renal = test system: CAKI-1 renal
HCT-116 colon = test system: HCT-116 colon
HOP-62 NSCLC = test system: HOP-62 NSCLC
HOP-92 NSCLC = test system: HOP-92 NSCLC
HS 578T breast = test system: HS 578T breast
MOLT-4 leukemia = test system: MOLT-4 leukemia
NCI-H522 lung = test system: NCI-H522 lung
SF-295 CNS = test system: SF-295 CNS

SMILES | GI50 (CAKI-1 renal) | TGI (CAKI-1 renal) | GI50 (HCT-116 colon) | TGI (HCT-116 colon) | GI50 (HOP-62 NSCLC) | TGI (HOP-62 NSCLC) | GI50 (HOP-92 NSCLC) | TGI (HOP-92 NSCLC) | GI50 (HS 578T breast) | TGI (HS 578T breast) | GI50 (MOLT-4 leukemia) | TGI (MOLT-4 leukemia) | GI50 (NCI-H522 lung) | TGI (NCI-H522 lung) | GI50 (SF-295 CNS) | TGI (SF-295 CNS)
CCN(CC)c1nc(-c2ccc(Cl)cc2Cl)nc2ccccc12 | 16.5 µM | 62.4 µM | 14.8 µM | 29 µM | 17.3 µM | 35.6 µM | 22 µM | 93.4 µM | 8.82 µM | 35.1 µM | 42.9 µM | > 100 µM | 29.2 µM | > 74.9 µM | 22.8 µM | 62.4 µM
Cn1cnc([N+](=O)[O-])c1S(=O)(=O)Oc1ccccc1 | 1.66 µM | 3.41 µM | 5.37 µM | 13.2 µM | 19.3 µM | 39 µM | 5.85 µM | 19.1 µM | 24.6 µM | > 80.5 µM | 3.65 µM | 18.9 µM | 0.759 µM | 2.3 µM | 29.9 µM | > 73 µM
Oc1cc(O)c2c(c1)OC(c1ccc(O)c(O)c1)C(OC1(c3cc(O)c(O)c(O)c3)Oc3cc(O)cc(O)c3C(O)C1O)C2 (stereo not given) | – | 81.1 µM | – | 62 µM | – | 56.2 µM | – | 84.4 µM | – | > 86.1 µM | – | 52.8 µM | – | 49.7 µM | – | > 100 µM
Nc1c(C(=O)Nc2cccc(Br)c2)sc2nc3c(cc12)C(=O)CCC3 | 0.615 µM | > 100 µM | 0.534 µM | > 100 µM | 1.41 µM | > 100 µM | 0.64 µM | 86.2 µM | 0.597 µM | 83.5 µM | 18.5 µM | > 100 µM | 0.248 µM | – | 0.455 µM | > 59.7 µM
C=CC(=O)N1CCC(C2CCNc3c(C(N)=O)c(-c4ccc(Oc5ccccc5)cc4)nn32)CC1 (stereo not given) | 4.51 µM | 71 µM | 17.6 µM | 39.5 µM | 19.5 µM | 67.7 µM | 2.47 µM | 15.7 µM | 20.6 µM | 78.4 µM | 5.36 µM | 31 µM | 4.93 µM | 22.7 µM | 17.9 µM | 70 µM
CCN(CC)CCOc1ccc(/C=C2\CC3C4CC=C5C[C@@H](O)CC[C@]5(C)C4CC[C@]3(C)C2=O)cc1OC (stereo not given in full) | 4.14 µM | 16.3 µM | 2.44 µM | 8.79 µM | 3.94 µM | 10.9 µM | 1.45 µM | 32.2 µM | 5.62 µM | 33.7 µM | 2.04 µM | > 23.5 µM | 3.57 µM | 14 µM | 2.6 µM | 10.3 µM
C=CCCCCCCCCCCC1(O)C=CC2=[N+](CCCCCN=C(N)N)CCCN21 (stereo not given) | 3.22 µM | 14.1 µM | 12.4 µM | > 45.2 µM | 8.68 µM | 32 µM | – | 0.759 µM | 3.82 µM | 13.1 µM | 4.4 µM | 20.4 µM | 3.6 µM | 18.4 µM | 7.2 µM | 24.9 µM
Cc1nc2ccccc2nc1-c1ccc(N=[N+]([O-])c2ccc(-c3nc4ccccc4nc3C)cc2)cc1 | – | > 100 µM | – | > 100 µM | – | > 81.8 µM | – | > 66.1 µM | – | > 95.9 µM | – | > 100 µM | – | > 100 µM | – | > 100 µM
